In ChEMBL document CHEMBL3351490, “The discovery of potent, orally bioavailable pyrimidine-5-carbonitrile-6-alkyl CXCR2 receptor antagonists” (Bioorg Med Chem Lett, 2014):
≈ marks a conversion by molar mass, not a printed value.

Assays:
[1] = biological target: T1, C-X-C chemokine receptor type 2 (Homo sapiens, UniProt P25025); assay: Antagonist activity against human recombinant CXCR2 receptor expressed in CHO cell membranes by SPA based [35S]GTPgammaS binding assay; type: functional
T1 sequence (P25025 whole entry): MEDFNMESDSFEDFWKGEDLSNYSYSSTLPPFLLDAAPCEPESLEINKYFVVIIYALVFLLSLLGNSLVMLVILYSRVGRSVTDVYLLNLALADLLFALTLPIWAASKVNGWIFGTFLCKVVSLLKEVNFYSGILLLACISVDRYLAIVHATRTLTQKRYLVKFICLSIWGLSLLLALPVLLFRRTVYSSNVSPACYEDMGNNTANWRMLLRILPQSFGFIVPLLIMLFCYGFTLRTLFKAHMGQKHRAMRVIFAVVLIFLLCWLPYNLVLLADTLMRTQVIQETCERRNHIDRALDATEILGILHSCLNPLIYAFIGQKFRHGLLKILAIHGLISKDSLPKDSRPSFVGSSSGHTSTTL

[2] = biological target: T2, C-X-C chemokine receptor type 2 (Homo sapiens) (UniProt P25025); assay: Antagonist activity against human recombinant CXCR2 receptor expressed in CHO cell membranes at 10 uM by SPA based [35S]GTPgammaS binding assay; type: functional
T2 sequence (whole entry): T1 sequence (P25025 whole entry)

[3] = biological target: T1, C-X-C chemokine receptor type 2; assay: Displacement of [125I]-GRO-alpha from human recombinant CXCR2 receptor expressed in CHO cell membranes
[4] = Equilibrium solubility at pH 6.8; type: physicochemical; conditions: buffer
[5] = Half life in iv dosed rat; type: ADME, organism-based; conditions: in vivo
[6] = Oral bioavailability in rat; type: ADME, organism-based; conditions: in vivo
[7] = Volume of distribution at steady state in iv dosed rat; type: ADME, organism-based; conditions: in vivo, read-out: Vdss
[8] = Clearance in iv dosed rat; type: ADME, organism-based; conditions: in vivo
[9] = Protein binding in rat plasma; type: ADME, cell-free; conditions: read-out: PPB
[10] = Dissociation constant, pKa of the compound; type: physicochemical

Row | IC50 [1] [nM] | inhibition [2] [%] | Structure (SMILES) | other results
1 | 900 | > 50 | CC(C)c1nc(SCc2cccc(F)c2F)nc(O)c1C#N | 
2 | 4900 | > 50 | N#Cc1c(O)nc(SCc2cccc(F)c2F)nc1C1CCCC1 | 
3 | 1400 | > 50 | Cc1ccc(-c2nc(SCc3cccc(F)c3F)nc(O)c2C#N)cc1 | 
4 | 3700 | > 50 | CC(C)(C)c1nc(SCc2cccc(F)c2F)nc(O)c1C#N | 
5 | 1500 |  | CCOC(=O)[C@H]1C[C@@H]1c1nc(SCc2cccc(F)c2F)nc(O)c1C#N (racemic) | 
6 | 6 |  | N#Cc1c(O)nc(SCc2cccc(F)c2F)nc1[C@H]1C[C@@H]1CO | 
7 | 3700 |  | N#Cc1c(O)nc(SCc2cccc(F)c2F)nc1-c1ccccc1 | 
8 | 7 |  | N#Cc1c(O)nc(SCc2cccc(F)c2F)nc1[C@H]1C[C@@H]1C(N)=O | 
9 | 4300 | > 50 | Cc1nc(SCc2cccc(F)c2F)nc(O)c1C#N | 
10 | 1700 | > 50 | N#Cc1c(O)nc(SCc2cccc(F)c2F)nc1C1CCC1 | 
11 | 1300 |  | CCOC(=O)[C@H]1C[C@@H]1c1nc(SCc2cccc(F)c2F)nc(O)c1C#N (stereo in doubt; form 2) | 
12 | 10 |  | N#Cc1c(O)nc(SCc2cccc(F)c2F)nc1[C@H]1C[C@@H]1C(=O)O | 
13 | 140 | > 50 | N#Cc1c(O)nc(SCc2cccc(F)c2F)nc1C1CC1 | solubility thermodynamic [4]: 10 µg/mL (≈ 31.3 µM); half-life [5]: 360 min; bioavailability [6]: > 100%; IC50 [3]: 40 nM; Vd [7]: 0.2 L/kg; clearance [8]: 1.6 mL/min/kg; fraction unbound [9]: < 0.01; pKa [10]: 8.9
14 | 4700 | > 50 | Cc1cccc(-c2nc(SCc3cccc(F)c3F)nc(O)c2C#N)c1 | 
15 | 1600 | > 50 | CC(C)Oc1ccc(-c2nc(SCc3cccc(F)c3F)nc(O)c2C#N)cc1 | 

The next lines start with the compound.

Row | Structure (SMILES) | IC50 [1] [nM] | inhibition [2] [%] | other results
16 | Oc1nc(SCc2cccc(F)c2F)nc(C2CC2)c1Br | 1400 |  | 
17 | CCOC(=O)[C@H]1C[C@@H]1c1nc(SCc2cccc(F)c2F)nc(O)c1C#N (stereo in doubt; form 1) | 320 |  | 
18 | N#Cc1c(O)nc(CSc2cccc(F)c2F)nc1C1CC1 | 10000 |  | 
19 | Oc1nc(SCc2cccc(F)c2F)nc(C2CC2)c1I | 3200 |  | 
20 | N#Cc1c(O)nc(SCc2cccc(F)c2F)nc1-c1ccc(Cl)cc1 | 7400 | > 50 | 
21 | CC(C)(CO)Nc1nc(SCc2cccc(F)c2F)nc(-c2ccccc2)c1C#N | > 30000 |  | 
22 | Oc1cc(C2CC2)nc(SCc2cccc(F)c2F)n1 | 320 |  | 
23 | COc1ccc(-c2nc(SCc3cccc(F)c3F)nc(O)c2C#N)cc1 | 710 | > 50 | 
24 | CC(Sc1nc(O)c(C#N)c(C2CC2)n1)c1ccccc1 (stereo not drawn) | 4800 |  | 
25 | COc1ccc(-c2nc(SCc3cccc(F)c3F)nc(O)c2C#N)cc1C | 4600 | > 50 | 
26 | N#Cc1c(O)nc(CSc2ccccc2)nc1C1CC1 | > 30000 |  | 
27 | N#Cc1c(O)nc(SCc2c(Cl)cccc2Cl)nc1-c1ccccc1 | > 30000 |  | IC50 [3]: 4300 nM
28 | N#Cc1c(O)nc(SCc2ccccc2)nc1C1CC1 | 510 |  | 
29 | N#Cc1c(O)nc(SCc2cccc(F)c2F)nc1-c1ccc(O)cc1 | 780 | > 50 | 
30 | CS(=O)(=O)Nc1nc(SCc2cccc(F)c2F)nc(-c2ccccc2)c1C#N | > 30000 |  | 
31 | CC(C)(Sc1nc(O)c(C#N)c(C2CC2)n1)c1ccccc1 | 6400 |  | 
